Where two headings read alike, the source gives them in different places.

For experiment [1], the system named is LPS stimulated human PBMCs. Kind of experiment: LPS stimulated human PBMC, IL-1β and IL-6 ELISA. The format is cell-based. In a few lines: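 Human PBMC (1-2 healthy donors), 150,000 cells/well, treated with test agents at 1,000 nM down to 1 nM or 0.2 nM, in duplicate. LPS at 1 ng/ml added immediately after free payload or 4 h after conjugates; IL-1β and IL-6 in supernatants measured by ELISA.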

The next experiment relates to human PBMC. Description: Cytokine production (IL-1β, IL-6) at 24 hr by human PBMC incubated with 1 ng/mL LPS. It counts as cell-based. Conditions: free steroid payloads, serial dilutions, 1 ng/mL LPS, 24 hr. How it is done:
FIG. 51: INX-SM-3, INX-SM-4, and INX-SM-1 inhibit IL-1β (left) and IL-6 (right) production. Cytokine levels were measured at 24 hr for human PBMCS incubated with 1 ng/mL LPS and serial dilutions (1000-1 nM) of steroid payloads, with the no treatment control plotted on the log-scale x-axis at <1 nM; n=1 donor, standard deviation plotted from technical duplicates.
FIG. 52: INX-SM-1, INX-SM-3, INX-SM-4 and INX-SM-6 inhibit IL-1β production. Cytokine levels measured at 24 hr for human PBMCS incubated with 1 ng/ml LPS and serial dilutions (1000-1 nM) of steroid payloads, with the no treatment control plotted on the log-scale x-axis at <1 nM; n=1 donor, standard deviation plotted from technical duplicates.
FIG. 53: INX-SM-9, INX-SM-31 and INX-SM-35 inhibit IL-1β (top) and IL-6 (bottom) production. Cytokine levels measured at 24 hr for human PBMCS incubated with 1 ng/mL LPS and serial dilutions (1000-0.2 nM) of steroid payloads, with the no treatment control plotted on the log-scale x-axis at <0.2 nM; n=2 donors-representative donor shown. Standard deviation plotted from technical duplicates.
FIG. 54: INX-SM-32 inhibits IL-1β (top) and IL-6 (bottom) production. Cytokine levels measured at 24 hr for human PBMCS incubated with 1 ng/mL LPS and serial dilutions (500-1 nM) of steroid payloads, with the no treatment control plotted on the log-scale x-axis at <1 nM; n=2. Representative donor shown. Standard deviation plotted from technical duplicates.
Cytokine levels measured at 24 hr for human PBMCS incubated with 1 ng/ml LPS and serial dilutions (1000-0.5 nM) of steroid payloads, with the no treatment control plotted on the log-scale x-axis at <0.5 nM; n=1 donor, standard deviation plotted from technical duplicates.
FIG. 56: INX-SM-2 and INX-SM-7 show inhibition in IL-1β. Average Cytokine levels measured at 24 hr for human PBMCS incubated with 1 ng/ml LPS and serial dilutions (1000-0.16 nM) of steroid payloads, with the no treatment control plotted on the log-scale x-axis at <0.16 nM; n=1, standard deviation plotted from technical duplicates. […]
Average cytokine levels measured at 24 hr for human PBMC incubated with 1 ng/ml LPS and serial dilutions (100-0.032 nM) of glucocorticoid payloads; n=1, mean of technical duplicates.
Average cytokine levels measured at 24 hr for human PBMC incubated with 1 ng/mL LPS and serial dilutions (1000-0.32 nM) of glucocorticoid payloads; n=1, mean of technical duplicates.
Cytokine levels measured at 24 hr for human PBMC incubated with 1 ng/mL LPS and serial dilutions (1000-0.5 nM) of steroid payloads, with the no treatment control plotted on the log-scale x-axis at <0.5 nM; n=1 donor, mean of technical duplicates plotted.
Average cytokine levels for A. hull-1β B. huIL-6 measured at 24 hr for human PBMC incubated with 1 ng/mL LPS and serial dilutions (1000-0.16 nM) of conjugated steroid linker payloads, with the no treatment control plotted on the log-scale x-axis at <0.16 nM; n=1, standard deviation plotted from technical duplicates. Values above the ULOQ (12,500 pg/mL for IL-1b and 150,000 pg/mL for IL-6) were plotted as the extrapolated value.
Average cytokine levels for IL-1β measured at 24 hr for human PBMC incubated with 1 ng/mL LPS and serial dilutions (1000-0.16 nM) of conjugated steroid linker payloads, with the no treatment control plotted on the log-scale x-axis at <0.16 nM; n=1, mean plotted of technical duplicates
Average cytokine levels for IL-1β measured at 24 hr for human PBMC incubated with 1 ng/mL LPS and serial dilutions (1000-0.16 nM) of conjugated steroid linker payloads, with the no treatment control plotted on the log-scale x-axis at <0.16 nM; n=1, mean plotted of technical duplicates.
FIG. 66: Analogs of INX V are potent relative to INX231J. […]

Where [2] appears, read: Experiment 6: free payload 1000-0.16 nM, 24 hr.

On to `C[C@]12C=CC(=O)C=C1CC[C@@H]1[C@@H]2[C@@H](O)C[C@@]2(C)[C@H]1C[C@H]1CN(c3ccc(Cc4cccc(N)c4)cc3)C[C@]12C(=O)CO` [INX-SM-40, (6aR,6bS,7S,8aS,8bS,11aR,12aS,12bS)-10-(4-(3-aminobenzyl)phenyl)-7-hydroxy-8b-(2-hydroxyacetyl)-6a,8a-dimethyl-1,6a,6b,7,8,8a,8b,9,10,11,11a,12,12a,12b-tetradecahydronaphtho[2′,1′:4,5]indeno[1,2-c]pyrrol-4 (2H)-one], for which, in experiment [1] (Experiment 12: free payloads 1000-0.15 nM), the “inhibition of IL-1β and IL-6” value was “weakly inhibit IL-1β and IL-6”. Also, in the experiment with human PBMC, the “inhibition of IL-1β production” value is reported as “weakly inhibit” and the “inhibition of IL-6 production” value is “weakly inhibit”.
Regarding `C[C@]12C=CC(=O)C=C1CC[C@@H]1[C@@H]2[C@@H](O)C[C@@]2(C)[C@H]1C[C@H]1O[C@@H](c3ccc(Cc4csc(N)n4)cc3)O[C@]12C(=O)CO` [INX-SM-2, (6aR,6bS,7S,8aS,8bS,10R,11aR,12aS,12bS)-10-(4-((2-aminothiazol-4-yl)methyl)phenyl)-7-hydroxy-8b-(2-hydroxyacetyl)-6a,8a-dimethyl-1,2,6a,6b,7,8,8a,8b,11a,12,12a,12b-dodecahydro-4H-naphtho[2′,1′:4,5]indeno[1,2-d][1,3]dioxol-4-one], the figures for the “inhibition of IL-1β production” value (in experiment [1] (setting [2]); with human PBMC) were “dose-dependent inhibition in IL-1β production” and “inhibition”, respectively.
As for `C[C@]12C=CC(=O)C=C1CC[C@@H]1[C@@H]2[C@@H](O)C[C@@]2(C)[C@H]1C[C@H]1O[C@@H](c3ccc(CC45C6C7C4C4C5C6C74N)cc3)O[C@]12C(=O)CO` (stereo partly drawn) [INX-SM-9, (6aR,6bS,7S,8aS,8bS,10R,11aR,12aS,12bS)-10-(4-((4-aminocuban-1-yl)methyl)phenyl)-7-hydroxy-8b-(2-hydroxyacetyl)-6a,8a-dimethyl-1,2,6a,6b,7,8,8a,8b,11a,12,12a,12b-dodecahydro-4H-naphtho[2′,1′:4,5]indeno[1,2-d][1,3]dioxol-4-one], in experiment [1] (Experiment 3: free payload 1000-0.2 nM, 24 hr, n=2 donors), the “inhibition of IL-1β production” value was “dose dependent inhibition in IL-1β production”. Besides, in the experiment with human PBMC, the “inhibition of IL-1β production” value is recorded as “inhibit” and the “inhibition of IL-6 production” value is listed as “inhibit”.
With `C[C@]12C=CC(=O)C=C1CC[C@@H]1[C@@H]2[C@@H](O)C[C@@]2(C)[C@H]1C[C@H]1O[C@@H](c3ccc(CC4CC5(CNC5)C4)cc3)O[C@]12C(=O)CO` [INX-SM-47, (6aR,6bS,7S,8aS,8bS,10R,11aR,12aS,12bS)-10-(4-((2-azaspiro[3.3]heptan-6-yl)methyl)phenyl)-7-hydroxy-8b-(2-hydroxyacetyl)-6a,8a-dimethyl-1,2,6a,6b,7,8,8a,8b,11a,12,12a,12b-dodecahydro-4H-naphtho[2′,1′:4,5]indeno[1,2-d][1,3]dioxol-4-one 2,2,2-trifluoroacetate], in experiment [1], the “inhibition of IL-1β and IL-6” value is “weakly inhibit IL-1β and IL-6”. Moreover, in the experiment on human PBMC, the “inhibition of IL-1β production” value is on record as “weakly inhibit” and the “inhibition of IL-6 production” value was “weakly inhibit”.
Take `C[C@]12C=CC(=O)C=C1CC[C@@H]1[C@@H]2[C@@H](O)C[C@@]2(C)[C@H]1C[C@H]1CN(c3ccc(CC4CC5(CC(N)C5)C4)cc3)C[C@]12C(=O)CO` (stereo partly drawn) [INX-SM-37, (6aR,6bS,7S,8aS,8bS,11aR,12aS,12bS)-10-(4-((6-aminospiro[3.3]heptan-2-yl)methyl)phenyl)-7-hydroxy-8b-(2-hydroxyacetyl)-6a,8a-dimethyl-1,6a,6b,7,8,8a,8b,9,10,11,11a,12,12a,12b-tetradecahydronaphtho[2′,1′:4,5]indeno[1,2-c]pyrrol-4 (2H)-one]: the “potency of free payloads (conclusions)” value in experiment [1] is given as “lowest potency among the R stereoisomers of the series”. Further, the “inhibition of IL-1β” value in experiment [1] (Experiment 11: free payloads 1000-0.15 nM) is “weakly inhibits IL-1β”. Further, the “inhibition of IL-1β production” value with human PBMC is on record as “weakly inhibits”.
`C[C@]12C=CC(=O)C=C1CC[C@@H]1[C@@H]2[C@@H](O)C[C@@]2(C)[C@H]1C[C@H]1O[C@@H](c3ccc(CC4(N)COC4)cc3)O[C@]12C(=O)CO` [INX-SM-33, (6aR,6bS,7S,8aS,8bS,10R,11aR,12aS,12bS)-10-(4-((3-aminooxetan-3-yl)methyl)phenyl)-7-hydroxy-8b-(2-hydroxyacetyl)-6a,8a-dimethyl-1,2,6a,6b,7,8,8a,8b,11a,12,12a,12b-dodeca hydro-4H-naphtho[2′,1′:4,5]indeno[1,2-d][1,3]dioxol-4-one]: the “potency of free payloads (conclusions)” value in experiment [1] is reported as “lowest potency among the R stereoisomers of the series”. Also, the “inhibition of IL-1β and IL-6 production” value in experiment [1] (Experiment 5: free payload 1000-0.5 nM, 24 hr) is recorded as “modest inhibition of cytokine production”. Also, in the experiment with human PBMC, the “inhibition of IL-1β production” value was “modest inhibition” and the “inhibition of IL-6 production” value is listed as “modest inhibition”.
Take `C[C@]12C=CC(=O)C=C1CC[C@@H]1[C@@H]2[C@@H](O)C[C@@]2(C)[C@H]1C[C@H]1O[C@@H](c3ccc(Cc4ncc(N)s4)cc3)O[C@]12C(=O)CO` [INX-SM-7, (6aR,6bS,7S,8aS,8bS,10R,11aR,12aS,12bS)-10-(4-((5-aminothiazol-2-yl)methyl)phenyl)-7-hydroxy-8b-(2-hydroxyacetyl)-6a,8a-dimethyl-1,2,6a,6b,7,8,8a,8b,11a,12,12a,12b-dodecahydro-4H-naphtho[2′,1′:4,5]indeno[1,2-d][1,3]dioxol-4-one]: the “inhibition of IL-1β production” value is on record as “dose-dependent inhibition in IL-1β production” in experiment [1] (setting [2]) and “inhibition” in the experiment on human PBMC.

The values are drawn from patent publication US20250108119A1, “NOVEL STEROID PAYLOADS, STEROID LINKERS, ADCs CONTAINING AND USE THEREOF” (IMMUNEXT, INC., priority 2021, published 2025).
